Experimental data reported in ChEMBL document CHEMBL4052616, “Isoniazid derivatives and their anti-tubercular activity” (Eur J Med Chem, 2017).
Values after ≈ are worked out from the molar mass of the structure shown.

Tested on: Mycobacterium tuberculosis variant bovis
Experiment: Antimycobacterial activity against Mycobacterium bovis 8 by serial dilution method
Format: functional

In the case of `NNC(=O)c1ccncc1` [ISONIAZID], the MIC is reported as 0.015 to 0.06 µg/mL (≈ 0.109 to 0.438 µM).
